Columns and labels:
HUVECs [1] = test: HUVEC tubulogenesis on matrigel; format: cell-based, human; details: 7.5 μM (highest concentration tested)
Description: The EYA inhibitors were also tested in tubulogenesis assays. The tubulogenesis assays were performed in 15-well micro-slide (ibidi LLC, Verona Wis.), using growth factor-reduced matrigel (BD Bioscience, Billerica, Mass.). The matrix was prepared by loading 10 μl of matrigel in each micro-slide well and allowing it to solidify for 30 minutes at 37° C. HUVECs were trypsinized and resuspended at 100,000 cell/ml in EBM+2.5% FBS. 50 μl (5,000 cell) were loaded on top of the solidified matrigel and the preparation was incubated for 20 hours at 37° C. in a humidified incubator in a 5% CO2 atmosphere. Bright field images were taken using an inverted microscope at 2.5× magnification, which allowed imaging of the whole well in two pictures that were later merged in Photoshop. Tubular structures were traced and counted using NeuroJ (NIH, USA). In experiments with inhibitor, the inhibitor was added to the cell suspension before loading. Each sample was loaded in triplicate, and each treatment was repeated for reproducibility.

MCF10A-EYA2 cells = test: Transwell migration of MCF10A-EYA2 cells; format: cell-based; details: for migration of MCF10A(EYA2) cells: 7.5 μM
Text: The tyrosine phosphatase activity of Eya3 and Eya2 promotes single cell motility in breast cancer cells (Pandey, R. N. et al. Oncogene (2010) 29:3715-3722, incorporated by reference in its entirety). EYA2 is over-expressed in breast cancers and is associated with increased metastasis and a poorer outcome (Farabaugh, et al. Oncogene (2011) 259). […] Overexpression of EYA2, but not the tyrosine-phosphatase dead mutant, promoted cell motility (FIG. 2a). […] This effect was dose-dependent (FIG. 2d) and compound (1a) was able to reduce cell motility by over 50% at the lowest concentration (1 μM) tested.
In order to determine whether EYA3 knock down would affect cell migration, a modified Boyden chamber assay was used to measure HUVEC migration. Briefly, human umbilical vein endothelial cells (HUVECs) were purchased from Lonza (Walkersville, Md.) and maintained in the endothelial cell growth medium (PromoCell, Heidelberg, Germany), under a 5% CO2 atmosphere. MCF10A cells from ATCC were stably transfected with either pcDNA 3.2N5-DEST (vector control), V5-EYA2 or V5-EYA2(D250N). Transwell migration experiments were performed as previously described (Pandey, R. N. et al. Oncogene 29, 3715-3722, (2010)).

[2] = tested on: developing zebrafish vasculature; test: Zebrafish model of angiogenesis; format: in vivo; details: for number of intersegmental vessels / defects in the developing vasculature: varying doses; for defects in the developing vasculature: exposure from 5.25 hpf, analysis at 24 hpf
Description: Embryos (FLK1-GFP trangenic) were maintained in fish water until the 50% epiboly stage (5.25 hpf) and were transferred into wells of 24-well plate containing the inhibitors in fish water. The analysis for vascular defects was performed after the 24 hpf stage, and embryos were imaged using a fluorescence microscope.
Transgenic fish expressing EGFP in endothelial cells (Tg(flk1:EGFP)) were used to facilitate visualization of the developing vasculature. In control experiments embryos were treated with 0.1% DMSO (vehicle). At the time of analyses (24 hpf) developing vessels normally migrated from the lateral plate mesoderm to the midline and formed the vascular cord, subsequently forming the dorsal aorta and the posterior cardinal vein and followed by the formation of intersegmental vessels at designated branch points (FIG. 6b).

HUVECs [3] = test: HUVEC proliferation (MTT); format: cell-based, human; details: 5 μM, 24 hours
mouse aortic rings = test: Aortic ring sprouting angiogenesis assay; format: cell-based; details: 5 μM, 10 days, VEGF-stimulated
Description: Endothelial cell migration can also be studied ex vivo using the aortic ring assay in which sprouting angiogenesis is monitored by the formation of vascular sprouts outside the wall of mouse aortic rings incubated in collagen matrix and stimulated by VEGF (Gerhardt, H., et al. EXS, 3-15 (2005), hereby incorporated by reference in its entirety). Briefly, mice were obtained from the Cincinnati Children's veterinary service and handled according to the institutional animal care and use protocol. […] Mice were 4 to 6 weeks old female C57BL16, and aortic ring explants were cultured at 37° C. in a humidified incubator under a 5% CO2 atmosphere.
Each inhibitor was serially diluted (between 0.25 mM and 7.5 mM) to stocks of 1000× the working concentrations in sterile 100% DMSO in order to achieve an equal final concentration of DMSO (0.1% v/v) in all culture conditions. For the experiments, the compounds were diluted in EBM containing 2.5% FBS, penicillin/streptomycin and 20 ng/ml VEGF165 (R&D Systems, Minneapolis, Minn.). Each compound was applied from the first day of culture over a 10-day period with medium change every two days. In all experiments, the vehicle (DMSO, 0.1%) was used as control. The sprouting density was derived from counting the number of branches per ring, and the extent of angiogenic sprouting was estimated by measuring the total surface area covered by the vessels as illustrated in FIG. 7.

[4] = tested on: retinal neovascularization; test: Mouse model of oxygen-induced retinopathy; format: in vivo; details: 100 or 50 pmoles injected at P12, analyzed at P16
Text: The mouse model of oxygen-induced retinopathy mimics the retinopathy characteristic of proliferative retiopathy conditions such as retinopathy of prematurity and diabetic retinopathy. […] The resulting retinal hypoxia after day 12, when pups were brought back to 20% O2, induced excessive hypoxia-driven angiogenesis. A characteristic large avascular area at the center of the retina and excessive regrowth of superficial vessels (pre-retinal neovascular tufts) in the mid-peripheral region was observed. […] In contrast, inhibition of either Vegf or Vegfr2 in OIR experiments suppresses both neovascular tuft formation and revascularization.

PTP1B = PTP1B (Homo sapiens (Human), UniProt P18031); test: PTP1B-catalyzed pNPP hydrolysis; format: biochemical; details: EYA3 vs PTP1B
Description: The catalytic domain of human Eya2 (“hEYA2(ED)”) was similarly sub-cloned as a polyhistidine fusion construct in the vector pDEST-527. Fusion protein was purified by NiNTA chromatography and followed by size-exclusion chromatography over a Superdex-75 column. The relative purity of protein samples was determined using SDS-PAGE. PTP1B was purified as described previously (Rayapureddi, J. P. et al. Nature 426, 295-298 (2003), incorporated by reference in its entirety).
(§1) Screening Methods. An inhibitory assay was conducted using the previously described p-nitrophenylphosphate assay (Rayapureddi, J. P. et al. Nature 426, 295-298 (2003)). Briefly, ED was incubated in a reaction mixture containing 20 mM MES pH 6, 2 mM MgCl2, 125 μM inhibitor, 3.4 mM para-nitrophenol phosphate (pNPP) and 0.01 μg/μL enzyme.
PTP1B is a classical Cys-based tyrosine phosphatase.

retinal vasculature = test: Post-natal retinal angiogenesis in mice; format: in vivo, mouse; details: 100 μM injected into eyes at P0.5 and P3, P5 retinas
Description: Next, retinal blood vessel density and angiogenic extension were studied using induced deletion of Eya3 in mice by PDGFB-icreERT2 starting at the day of birth. Isolectin labeled retinal blood vessels at postnatal day 5 in control Eya3fl/fl (FIGS. 8b and 8d) and experimental Eya3fl/fl; PDGFB-icreERT2 (FIGS. […]) mice. FIGS. 8d and 8e are magnified images of the regions indicated in 8b and 8c, respectively.
Next, treatment with an inhibitor of Eya3 was performed to test the effect on post-natal retinal angiogenesis. Briefly, 100 μM of compound 1a was injected into the eyes of post-natal mice, at P0.5 and P3. P5 retinas were then analyzed for effects on the retinal vasculature.

[5] = target: full-length human recombinant EYA3 (Homo sapiens (Human), UniProt Q99504); test: pNPP phosphatase assay, full-length EYA3; format: biochemical
Text: The catalytic domain of mouse Eya3 (“ED”, comprising residues 223-510 of Eya3) was purified as described by Rayapureddi, J. P. et al. (FEBS Lett 580, 3853-3859 (2006), incorporated by reference in its entirety). For full-length Eya3 (“hEYA3”), human Eya3 isoform 2 (representing the major species identified in human cell lines by mass spectrometry, expressed as residues 127-573 of NM_001990, isoform 1) was sub-cloned into pDEST565 to express a poly-histidine-Glutathione-S-transferase (His-GST) tagged fusion protein with a TVMV protease site. The protein was purified by glutathione-S-transferase affinity chromatography followed by TVMV cleavage, Ni-NTA chromatography, and finally size exclusion chromatography.
as §1
The compounds were then tested using full-length human recombinant, purified EYA3 and pNPP as a substrate. Compounds were dissolved in DMSO and diluted as needed. […] Reactions were incubated at 30° C. for 30 minutes and quenched with 100 mM EDTA pH 10. IC50 values were then calculated directly from regression curves using PRISM software. […]

EYA3-SIX2 interaction = EYA3-SIX2 interaction (Homo sapiens (Human), UniProt Q99504); test: His-SIX2 pull-down of EYA3 on Ni-NTA; format: binding; details: 50 μM, 15 minutes
Text: Each point represents the mean and standard deviation of two independent readings. (C) Plots of Vmax and Km as a function of inhibitor concentration. […] The mixture was loaded on a Ni-NTA column. Beads were washed with 3 column volumes of load buffer (last washes, lanes 2 and 6). Proteins retained on the beads are shown in lanes 3 and 7. Lanes 4 and 8 are molecular weight markers.
One function of the catalytic domain of the EYAs is to mediate its interaction with the SIX proteins. This complex then translocates to the nucleus where the SIX-EYA complex can activate transcription.

[6] = tested on: A673 (Ewings sarcoma) cells; test: Mouse xenograft model of Ewings sarcoma; format: in vivo; details: A673 xenograft in nude mice
Description: The affect of EYA inhibitors on a mouse xenograft model of Ewings sarcoma was tested. 5×10^6 A673 (Ewings sarcoma) cells in 0.1 ml sterile matrigel were injected subcutaneously into the dorsal flank region of nude mice. Approximately 5 days after injection, the tumors were about 100-300 mm^3. […] The dose for intra-peritoneal injections was 25 mg/kg/day. The tumor size was monitored every other day. Animals were sacrificed after 2 weeks, or when tumor volume approached 10% of animal weight.

Sequence of PTP1B (P18031 whole entry, species assumed, the tested form may be a part): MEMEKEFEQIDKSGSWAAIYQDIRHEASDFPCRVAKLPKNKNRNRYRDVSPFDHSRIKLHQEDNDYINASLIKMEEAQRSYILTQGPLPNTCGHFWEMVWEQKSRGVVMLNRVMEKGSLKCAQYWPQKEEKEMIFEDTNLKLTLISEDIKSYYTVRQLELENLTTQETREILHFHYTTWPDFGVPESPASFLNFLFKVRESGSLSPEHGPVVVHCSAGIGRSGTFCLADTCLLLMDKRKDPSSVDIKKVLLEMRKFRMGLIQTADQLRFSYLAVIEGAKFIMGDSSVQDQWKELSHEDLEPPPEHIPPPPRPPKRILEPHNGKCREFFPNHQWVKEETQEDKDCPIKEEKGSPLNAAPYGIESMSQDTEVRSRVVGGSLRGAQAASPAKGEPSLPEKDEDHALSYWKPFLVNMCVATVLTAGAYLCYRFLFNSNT
Sequence of full-length human recombinant EYA3 (Q99504 127-573): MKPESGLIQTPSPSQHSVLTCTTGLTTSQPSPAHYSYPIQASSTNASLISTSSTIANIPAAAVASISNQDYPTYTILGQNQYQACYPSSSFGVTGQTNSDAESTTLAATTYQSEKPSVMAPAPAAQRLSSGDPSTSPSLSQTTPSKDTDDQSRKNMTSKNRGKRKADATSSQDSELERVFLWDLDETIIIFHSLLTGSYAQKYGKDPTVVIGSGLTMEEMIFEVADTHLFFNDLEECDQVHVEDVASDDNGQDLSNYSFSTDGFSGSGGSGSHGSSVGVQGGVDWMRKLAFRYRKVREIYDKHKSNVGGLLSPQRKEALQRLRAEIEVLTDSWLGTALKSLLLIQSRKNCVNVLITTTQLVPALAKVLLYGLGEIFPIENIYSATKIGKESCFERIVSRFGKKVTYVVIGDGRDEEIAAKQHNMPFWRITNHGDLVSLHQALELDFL
Sequence of EYA3-SIX2 interaction (Q99504 whole entry, looked up, stated change not applied): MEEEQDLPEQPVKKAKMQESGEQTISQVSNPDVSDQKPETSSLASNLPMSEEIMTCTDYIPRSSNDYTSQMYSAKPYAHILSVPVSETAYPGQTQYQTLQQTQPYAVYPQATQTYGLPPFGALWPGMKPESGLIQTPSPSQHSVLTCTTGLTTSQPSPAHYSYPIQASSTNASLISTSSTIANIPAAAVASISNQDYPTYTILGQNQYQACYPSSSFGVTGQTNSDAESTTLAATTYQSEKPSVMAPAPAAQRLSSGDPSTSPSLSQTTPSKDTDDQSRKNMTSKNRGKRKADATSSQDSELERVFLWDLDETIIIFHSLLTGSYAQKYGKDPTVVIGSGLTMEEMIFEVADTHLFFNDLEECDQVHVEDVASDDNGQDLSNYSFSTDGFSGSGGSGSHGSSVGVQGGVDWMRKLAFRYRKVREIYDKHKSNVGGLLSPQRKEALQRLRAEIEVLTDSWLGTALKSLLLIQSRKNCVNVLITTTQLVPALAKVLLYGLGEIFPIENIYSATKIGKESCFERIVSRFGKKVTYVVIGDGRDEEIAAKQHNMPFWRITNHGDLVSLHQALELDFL
Sequence of EYA3-SIX2 interaction (Q9NPC8 whole entry partner, looked up): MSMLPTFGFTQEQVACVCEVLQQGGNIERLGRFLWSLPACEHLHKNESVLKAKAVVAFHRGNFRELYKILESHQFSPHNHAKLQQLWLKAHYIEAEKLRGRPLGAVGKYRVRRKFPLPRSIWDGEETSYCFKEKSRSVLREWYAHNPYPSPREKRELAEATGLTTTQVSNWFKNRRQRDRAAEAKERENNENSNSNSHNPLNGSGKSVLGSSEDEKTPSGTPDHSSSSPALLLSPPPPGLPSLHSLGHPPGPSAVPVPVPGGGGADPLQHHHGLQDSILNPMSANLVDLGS

Compound | inhibition of tubulogenesis (HUVECs [1]) | migration of MCF10A(EYA2) cells (MCF10A-EYA2 cells) | number of intersegmental vessels [2] | defects in the developing vasculature [2] | HUVEC cell proliferation (HUVECs [3]) | aortic ring sprouting (mouse aortic rings) | formation of neovascular tufts [4] | greater activity towards EYA3 than PTP1B (PTP1B) | retinal vascular branch points (retinal vasculature) | reduction of cell motility (MCF10A-EYA2 cells; 1 μM (lowest concentration tested)) | intersegmental vessels ([2]; 0.25 μM (lowest dose tested)) | Vmax and Km as a function of inhibitor concentration [5] | mode of inhibition of EYA3 (substrate titration) ([5]; increasing substrate concentration) | EYA3-SIX2 interaction in presence of inhibitor (EYA3-SIX2 interaction) | tumor growth [6]
CCCCc1oc2ccccc2c1C(=O)c1ccc(O)cc1 [Compound 1b] | effective | significantly inhibited cell migration | reduced the number of intersegmental vessels, but were less potent | Dose-dependent defects in the developing vasculature | no effect on cell proliferation | shorter sprouts and significantly lower microvascular density | Significant reduction in the formation of neovascular tufts | 4.7-6.5 fold |  |  |  |  |  |  | 
CCc1oc2ccccc2c1C(=O)c1ccc(O)cc1 [Compound 1a] |  | significantly inhibited cell migration | reduced the number of intersegmental vessels, but were less potent | Dose-dependent defects in the developing vasculature | no effect on cell proliferation | shorter sprouts and significantly lower microvascular density | Significant reduction in the formation of neovascular tufts | over 100 fold | quantifiable decrease in branch points | over 50% |  |  |  |  | 
CCc1oc2ccccc2c1C(=O)c1cc(Br)c(O)c(Br)c1 [Compound 1, Benzbromarone, reference compound] | effective | significantly inhibited cell migration |  | Dose-dependent defects in the developing vasculature | no effect on cell proliferation | shorter sprouts and significantly lower microvascular density | Significant reduction in the formation of neovascular tufts | 4.7-6.5 fold |  |  | significant reduction of intersegmental vessels | both values decrease with increased inhibitor concentration | not a competitive inhibitor | unaffected | able to reduce tumor growth
